PubChem BioAssay AID1259407 (Chemical Carcinogenesis Research Information System (CCRIS), 2018)
The source made the active and inactive calls. The rule behind the calls is not given here.

Test system: CCRIS mutagenicity, Ames/micronucleus/aberration tests
Assay: CCRIS mutagenicity studies

Compound: Nc1ccccc1
- mutagenic call (Test System: AMES SALMONELLA TYPHIMURIUM, Strain/Indicator: TA1535, Metabolic Activation: RAT, LIVER, S-9, Method: STANDARD PLATE): inactive; negative
- mutagenic call (Test System: AMES SALMONELLA TYPHIMURIUM, Strain/Indicator: TA1537, Metabolic Activation: HAMSTER, LIVER, S-9, AROCLOR 1254, Method: STANDARD PLATE): inactive; negative
- mutagenic call (Test System: AMES SALMONELLA TYPHIMURIUM, Strain/Indicator: TA1537, Metabolic Activation: HAMSTER, LIVER, S-9, Method: STANDARD PLATE): inactive; negative
- mutagenic call (Test System: AMES SALMONELLA TYPHIMURIUM, Strain/Indicator: TA1537, Metabolic Activation: MOUSE, LIVER, S-9, AROCLOR 1254, Method: STANDARD PLATE): inactive; negative
- mutagenic call (Test System: AMES SALMONELLA TYPHIMURIUM, Strain/Indicator: TA1537, Metabolic Activation: MOUSE, LIVER, S-9, Method: STANDARD PLATE): inactive; negative
- mutagenic call (Test System: AMES SALMONELLA TYPHIMURIUM, Strain/Indicator: TA1537, Metabolic Activation: NONE, Method: STANDARD PLATE): inactive; negative
- mutagenic call (Test System: AMES SALMONELLA TYPHIMURIUM, Strain/Indicator: TA1537, Metabolic Activation: RAT, LIVER, S-9, AROCLOR 1254, Method: STANDARD PLATE): inactive; negative
- mutagenic call (Test System: AMES SALMONELLA TYPHIMURIUM, Strain/Indicator: TA1537, Metabolic Activation: RAT, LIVER, S-9, PYRAZOLE, Method: PREINCUBATION): inactive; negative
- mutagenic call (Test System: AMES SALMONELLA TYPHIMURIUM, Strain/Indicator: TA1537, Metabolic Activation: RAT, LIVER, S-9, Method: STANDARD PLATE): inactive; negative
- mutagenic call (Test System: AMES SALMONELLA TYPHIMURIUM, Strain/Indicator: TA1538, Metabolic Activation: HAMSTER, LIVER, S-9, AROCLOR 1254, Method: STANDARD PLATE): inactive; negative
- mutagenic call (Test System: AMES SALMONELLA TYPHIMURIUM, Strain/Indicator: TA1538, Metabolic Activation: HAMSTER, LIVER, S-9, Method: STANDARD PLATE): inactive; negative
- mutagenic call (Test System: AMES SALMONELLA TYPHIMURIUM, Strain/Indicator: TA1538, Metabolic Activation: HAMSTER, SPLEEN, S-9, AROCLOR 1254, Method: STANDARD PLATE): inactive; negative
- mutagenic call (Test System: AMES SALMONELLA TYPHIMURIUM, Strain/Indicator: TA1538, Metabolic Activation: MOUSE, LIVER, S-9, AROCLOR 1254, Method: STANDARD PLATE): inactive; negative
- mutagenic call (Test System: AMES SALMONELLA TYPHIMURIUM, Strain/Indicator: TA1538, Metabolic Activation: MOUSE, LIVER, S-9, Method: STANDARD PLATE): inactive; negative
- mutagenic call (Test System: AMES SALMONELLA TYPHIMURIUM, Strain/Indicator: TA1538, Metabolic Activation: NONE, Method: STANDARD PLATE): inactive; negative
- mutagenic call (Test System: AMES SALMONELLA TYPHIMURIUM, Strain/Indicator: TA1538, Metabolic Activation: RAT, LIVER, S-9, AROCLOR 1254, Method: PREINCUBATION): inactive; negative
- mutagenic call (Test System: AMES SALMONELLA TYPHIMURIUM, Strain/Indicator: TA1538, Metabolic Activation: RAT, LIVER, S-9, AROCLOR 1254, Method: STANDARD PLATE): inactive; negative
- mutagenic call (Test System: AMES SALMONELLA TYPHIMURIUM, Strain/Indicator: TA1538, Metabolic Activation: RAT, LIVER, S-9, Method: STANDARD PLATE): inactive; negative
- mutagenic call (Test System: AMES SALMONELLA TYPHIMURIUM, Strain/Indicator: TA1538, Metabolic Activation: RAT, SPLEEN, S-9, AROCLOR 1254, Method: STANDARD PLATE): inactive; negative
- mutagenic call (Test System: CHINESE HAMSTER V-79, Strain/Indicator: V-79/6-THIOGUANINE, Metabolic Activation: NONE, Method: SUSPENSION/PLATE): inactive; negative
- mutagenic call (Test System: CHINESE HAMSTER V-79, Strain/Indicator: V-79/6-THIOGUANINE, Metabolic Activation: RAT, LIVER, HEPATOCYTES, Method: SUSPENSION/PLATE): inactive; negative
- mutagenic call (Test System: CHINESE HAMSTER V-79, Strain/Indicator: V-79/6-THIOGUANINE, Metabolic Activation: RAT, LIVER, S-9, PHENOBARBITAL AND BETA-NAPHTHOFLAVONE, Method: SUSPENSION/PLATE): active; positive
- mutagenic call (Test System: CHINESE HAMSTER V-79, Strain/Indicator: V-79/8-AZAGUANINE, Metabolic Activation: NONE, Method: SUSPENSION/PLATE): active; positive
- mutagenic call (Test System: CHINESE HAMSTER V-79, Strain/Indicator: V-79/8-AZAGUANINE, Metabolic Activation: S-9, Method: SUSPENSION/PLATE): active; positive
- mutagenic call (Test System: CHINESE HAMSTER V-79, Strain/Indicator: V-79/OUABAIN, Metabolic Activation: NONE, Method: SUSPENSION/PLATE): inactive; negative
- mutagenic call (Test System: CHINESE HAMSTER V-79, Strain/Indicator: V-79/OUABAIN, Metabolic Activation: S-9, Method: SUSPENSION/PLATE): inactive; negative
- mutagenic call (Test System: E. COLI, Strain/Indicator: WP2 UVRA, Metabolic Activation: HAMSTER, LIVER, S-9, AROCLOR 1254, Method: PREINCUBATION): inactive; negative
- mutagenic call (Test System: E. COLI, Strain/Indicator: WP2 UVRA, Metabolic Activation: HAMSTER, LIVER, S-9, AROCLOR 1254, Method: STANDARD PLATE): inactive; negative
- mutagenic call (Test System: E. COLI, Strain/Indicator: WP2 UVRA, Metabolic Activation: HAMSTER, LIVER, S-9, Method: PREINCUBATION): inactive; negative
- mutagenic call (Test System: E. COLI, Strain/Indicator: WP2 UVRA, Metabolic Activation: HAMSTER, LIVER, S-9, Method: STANDARD PLATE): inactive; negative
- mutagenic call (Test System: E. COLI, Strain/Indicator: WP2 UVRA, Metabolic Activation: MOUSE, LIVER, S-9, AROCLOR 1254, Method: PREINCUBATION): inactive; negative
- mutagenic call (Test System: E. COLI, Strain/Indicator: WP2 UVRA, Metabolic Activation: MOUSE, LIVER, S-9, AROCLOR 1254, Method: STANDARD PLATE): inactive; negative
- mutagenic call (Test System: E. COLI, Strain/Indicator: WP2 UVRA, Metabolic Activation: MOUSE, LIVER, S-9, Method: PREINCUBATION): inactive; negative
- mutagenic call (Test System: E. COLI, Strain/Indicator: WP2 UVRA, Metabolic Activation: MOUSE, LIVER, S-9, Method: STANDARD PLATE): inactive; negative
- mutagenic call (Test System: E. COLI, Strain/Indicator: WP2 UVRA, Metabolic Activation: NONE, Method: FLUCTUATION TEST): inactive; negative
- mutagenic call (Test System: E. COLI, Strain/Indicator: WP2 UVRA, Metabolic Activation: NONE, Method: PREINCUBATION): inactive; negative
- mutagenic call (Test System: E. COLI, Strain/Indicator: WP2 UVRA, Metabolic Activation: NONE, Method: STANDARD PLATE): inactive; negative
- mutagenic call (Test System: E. COLI, Strain/Indicator: WP2 UVRA, Metabolic Activation: RAT, LIVER, S-9, AROCLOR 1254, Method: PREINCUBATION): inactive; negative
- mutagenic call (Test System: E. COLI, Strain/Indicator: WP2 UVRA, Metabolic Activation: RAT, LIVER, S-9, AROCLOR 1254, Method: STANDARD PLATE): inactive; negative
- mutagenic call (Test System: E. COLI, Strain/Indicator: WP2 UVRA, Metabolic Activation: RAT, LIVER, S-9, Method: PREINCUBATION): inactive; negative
- mutagenic call (Test System: E. COLI, Strain/Indicator: WP2 UVRA, Metabolic Activation: RAT, LIVER, S-9, Method: STANDARD PLATE): inactive; negative
- mutagenic call (Test System: MOUSE LYMPHOMA, Strain/Indicator: L5178Y (TK+/TK-), Metabolic Activation: NONE, Method: SUSPENSION/PLATE): active; positive
- mutagenic call (Test System: MOUSE LYMPHOMA, Strain/Indicator: L5178Y (TK+/TK-), Metabolic Activation: RAT, LIVER, S-9, AROCLOR 1254, Method: SUSPENSION/PLATE): active; positive
- mutagenic call (Test System: UDS RAT HEPATOCYTES, Strain/Indicator: BROMODEOXYURIDINE INCORP, Metabolic Activation: NONE, Method: FLOW CYTOMETRIC ANALYSIS): inactive; negative
- mutagenic call (Test System: UDS RAT HEPATOCYTES, Strain/Indicator: THY INCORP, Metabolic Activation: NONE, Method: AUTORADIOGRAPHY): inactive; negative
- mutagenic call (Test System: UDS RODENT HEPATOCYTES, Strain/Indicator: THY INCORP (NON-S-PHASE), Metabolic Activation: NONE, Method: AUTORADIOGRAPHY): inactive; negative
